Data reported in patent US20040152641A1, “Use of polymethoxylated flavones for treating insulin resistance” (priority 2001, published 2004).
Converted amounts (≈) assume the structure as drawn.

Legend:
alpha-glucosidase = conditions: cited from earlier work
[1] = biological target: alpha-glucosidase Type 1 from bakers yeast (Saccharomyces cerevisiae, UniProt P53341); test: In vitro inhibition of alpha-glucosidase; type: biochemical; conditions: 30 min, 37° C., p-nitrophenyl-alpha-D-glucopyranoside
Sequence of alpha-glucosidase Type 1 from bakers yeast (P53341 whole entry): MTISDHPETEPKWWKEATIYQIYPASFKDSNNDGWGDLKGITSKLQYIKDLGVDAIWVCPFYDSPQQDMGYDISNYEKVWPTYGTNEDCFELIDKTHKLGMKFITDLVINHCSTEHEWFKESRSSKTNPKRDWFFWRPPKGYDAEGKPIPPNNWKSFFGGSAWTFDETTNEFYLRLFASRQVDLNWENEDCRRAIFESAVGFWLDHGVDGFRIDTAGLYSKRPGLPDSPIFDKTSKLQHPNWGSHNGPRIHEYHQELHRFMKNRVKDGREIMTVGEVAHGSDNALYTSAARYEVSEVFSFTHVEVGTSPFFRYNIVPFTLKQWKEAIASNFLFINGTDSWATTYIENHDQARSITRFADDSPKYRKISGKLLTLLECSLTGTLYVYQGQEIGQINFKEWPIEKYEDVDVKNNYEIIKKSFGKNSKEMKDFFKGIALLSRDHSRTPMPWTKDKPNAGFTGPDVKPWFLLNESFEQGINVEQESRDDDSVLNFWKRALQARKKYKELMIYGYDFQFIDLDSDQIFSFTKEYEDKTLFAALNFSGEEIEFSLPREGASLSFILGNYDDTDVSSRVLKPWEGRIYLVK
Procedure: For the assay, alpha-glucosidase Type 1 from bakers yeast was incubated for 30 min, at 37° C., in the presence of substrate (p-nitrophenyl-alpha-D-glucopyranoside) and in the presence vs. absence of citrus flavonoids or coumarins at concentrations ranging from 3 to 200 μg/mL (0.01 to 1.8 mM). The reaction was stopped by addition of 0.2 M Na2CO3 and absorbance was measured at 405 nm. Background absorbance (without enzyme) was subtracted for every flavonoid or coumarins concentration used. The inhibitory activity was expressed as percent control and IC50 values (concentrations of compounds required to inhibit alpha-glucosidase by 50%) were calculated.

HepG2 cells = test: Medium apo B in HepG2 cells made insulin-resistant by long-term insulin incubation; type: cell-based, human; conditions: insulin plus 25 μg/mL tangeretin, 5 days, Elisa
Procedure: In the cell culture study, 80-90% confluent HepG2 cells were incubated for 5 days with the following media:
1. Minimum essential medium containing 1% bovine serum albumin (MEM+BSA)
2. The same medium containing […] bovine insulin
All media were changed on day 3 to maintain high concentration of insulin (which undergoes partial degradation after long-term incubation). After 5 days, media and cells were collected. Medium concentrations of apo B were measured by Elisa and expressed as μg per mg cell protein as described previously^8.

[2] = system: human liver cell line HepG2; conditions: cited from earlier work
[3] = system: hamsters with casein-induced hypercholesterolemia; conditions: 0.13-1.0% supplementation; cited from earlier work
[4] = system: hamsters made insulin resistant by feeding 60% fructose diet; test: Hamsters made insulin resistant by 60% fructose diet, tangeretin supplementation, 2 weeks; conditions: for HDL cholesterol / Insulin / NEFA / NO2/NO3 / Triacylglycerols / VLDL + LDL cholesterol / Total cholesterol: serum, mean ± SD
Procedure: Diets were pair-fed to control for 2 weeks. After that time, fasting blood samples were collected by heart puncture for measurement of plasma lipids, glucose, NEFA, insulin and nitrites/nitrates (end products of nitric oxide metabolism). Total cholesterol in whole serum and in HDL fraction as well as total triglycerides and glucose were measured by enzymatic timed-endpoint methods, using the Beckman Coulter reagents and SYNCHRON™ LX System. VLDL+LDL cholesterol concentrations were calculated as a difference between total and HDL cholesterol. NEFA were determined enzymatically by NEFA C kit (Wako Chemicals USA Inc., Richmond, Va.). Serum insulin was measured using Rat Insulin RIA kit from Linco Research Inc. St. Charles, Mo. Serum nitrates/nitrites concentrations were determined using Nitrate/Nitrite Colorimetric Assay kit from Cayman Chemical Co., Ann Arbor, Mich.

## O=c1cc(-c2ccc(O)cc2)oc2cc(O)cc(O)c12 [apigenin]
alpha-glucosidase
  inhibition of alpha-glucosidase, previous studies: inhibition

## COc1ccc(-c2oc3c(OC)c(OC)c(OC)c(OC)c3c(=O)c2OC)cc1OC [Heptamethoxyflavone]
[1]
  IC50: 500 µM
  IC50 alpha-glucosidase: 201.7 µg/mL (≈ 466 µM)

## O=c1cc(-c2ccc(O)c(O)c2)oc2cc(O)cc(O)c12 [luteolin]
alpha-glucosidase
  inhibition of alpha-glucosidase, previous studies: inhibition

## COc1ccc([C@@H]2CC(=O)c3c(O)cc(O[C@@H]4O[C@H](CO[C@@H]5O[C@@H](C)[C@H](O)[C@@H](O)[C@H]5O)[C@@H](O)[C@H](O)[C@H]4O)cc3O2)cc1O [hesperidin]
alpha-glucosidase
  inhibition of alpha-glucosidase, previous studies: lack of alpha-glucosidase inhibition

## COc1ccc(-c2cc(=O)c3c(OC)c(OC)c(OC)c(OC)c3o2)cc1 [Tangeretin, 5,6,7,8,4′-pentamethoxyflavone]
HepG2 cells
  medium apo B reduced, compared to insulin alone: 69%
[2]
  production of apolipoprotein B (apo B): substantially reduced
[3]
  serum content of triacylglycerols and cholesterol: significantly reduced
[4]; 0.25-1.0% tangeretin, pair-fed, 2 weeks
  growth rate and food consumption between the groups: no significant difference
[4]; +0.25% Tan vs fructose group
  % change HDL cholesterol: 0%
  % change Insulin: −13%
  % change NEFA: −23%
  % change Total cholesterol: −5%
  % change Triacylglycerols: −24%
[4]; +0.5% Tan vs fructose group
  % change HDL cholesterol: −17%
  % change Insulin: −13%
  % change NEFA: −22%
  % change Total cholesterol: −22%
  % change Triacylglycerols: −27%
[4]; +1.0% Tan vs fructose group
  % change HDL cholesterol: −27%
  % change Insulin: −20%
  % change NEFA: −18%
  % change NO2/NO3: +99%
  % change Total cholesterol: −20%
  % change Triacylglycerols: −32%
[4]; fructose +0.25% Tan
  HDL cholesterol: 2.55 ± 0.72 mmol/L
  Insulin: 735 ± 315 pmol/L
  NEFA: 1.48 ± 0.36 mEq/L
  NO2/NO3: 55.2 ± 18.8 µmol/L
  Triacylglycerols: 1.51 ± 0.56 mmol/L
  VLDL + LDL cholesterol: 0.62 ± 0.3 mmol/L
[4]; fructose +0.5% Tan
  HDL cholesterol: 1.93 ± 0.48 mmol/L
  Insulin: 729 ± 239 pmol/L
  NEFA: 1.50 ± 0.33 mEq/L
  NO2/NO3: 52.0 ± 18.5 µmol/L
  Total cholesterol: 2.61 ± 0.43 mmol/L
  Triacylglycerols: 1.45 ± 0.52 mmol/L
  VLDL + LDL cholesterol: 0.68 ± 0.28 mmol/L
[4]; fructose +1.0% Tan
  HDL cholesterol: 1.88 ± 0.26 mmol/L
  Insulin: 675 ± 296 pmol/L
  NEFA: 1.58 ± 0.32 mEq/L
  NO2/NO3: 106.3 ± 27.9 µmol/L
  Total cholesterol: 2.69 ± 0.23 mmol/L
  Triacylglycerols: 1.35 ± 0.57 mmol/L
  VLDL + LDL cholesterol: 0.81 ± 0.22 mmol/L
[4]; fructose with 1% tangeretin
  Serum nitrate/nitrite concentration: doubled
[4]; supplementation with tangeretin, fructose diet
  Serum glucose: not altered
